Tests used:
[1] = Body weight in diet-induced obesity mouse model (HFD vs. regular diet); format: in vivo, C57BL/6J mice; conditions: HFD 12 weeks, then 100 μg/Kg daily oral for 4 weeks
Description: Because complications from obesity such as diabetes and cardiovascular disease usually require decades, surrogate animal models are important for studying the molecular aspects of obesity and its pathophysiological effects. One of these models that are gaining increasing attention is the diet-induced obesity model in mouse. The present protocol is designed to evaluate effects of CF102 in an in vivo mouse model of Diet-Induced obesity. The mice utilized are C57BL/6J males, 4-6 weeks old (The Jackson Laboratory, stock 000664). 60 kcal % fat diet (Research Diets, D12492i) Group I-II: Naïve animals (n=20) were fed with a regular diet, served as a control group and were defined as ‘Lean Diet’ After 12 weeks, mice were divided into 2 groups (n=10 per group), the first was treated with a daily oral administration of CF102 (Can-Fite BioPharma, Cat #A14402-10; 100 μg/Kg) for 4 weeks and the second with vehicle only. Group III-IV—Naïve mice (n=20) were fed with HFD for 12 weeks. After 12 weeks, mice were divided into 2 groups (n=10 per group), the first was treated with daily oral administration of CF102 (Can-Fite BioPharma, Cat #A14402-10; 100 μg/Kg) for 4 weeks and the second with vehicle only.

[2] = test system: 3T3-L1 adipocytes; experiment: Oil-Red-O staining, accumulation of lipid droplets in 3T3-L1 adipocytes; format: cell-based; conditions: 5 nM CF102, 48 h, p=0.01
Description: Pre-adipocytes were incubated in a differentiated medium (DMEM high glucose+10% FBS) containing 10 μg/ml insulin, 1 μM DEX and 0.5 mM IBMX and treated with 5 nM CF102 for 48 h to evaluate its potential anti-adipogenic effect. The accumulation of lipid droplets was evaluated by staining with Oil-Red-O. Briefly, cells were washed with PBS, incubated with 3.7% HCHO for 1 hr and then, incubated with Oil-Red-O solution for 45 min. Cells were washed very well to remove the excess of Oil-Red-O, visualized and photographed under an Olympus microscope with a Leica camera. For the quantification of lipid accumulation, cells were dissolved in isopropanol and the optical density was read on a Dynatech Corp. Microelisa reader (Chantilly, VA) at 595 nm. The degree accumulation of lipid droplets was proportional to the optical density.

[3] = test system: 3T3-L1 adipocytes; experiment: 3H-thymidine incorporation assay, proliferation of 3T3-L1 adipocytes; format: cell-based; conditions: 3T3-L1 cells
Description: 3T3-L1 pre-adipocytes were purchased from American Type Culture Collection (ATCC; Manassas, VA, USA). The pre-adipocytes were maintained in Dulbecco's modified Eagle's medium (DMEM; Hyclone, South Logan, UT, USA), and supplemented with 10% newborn calf serum (Hyclone) and antibiotics (Hyclone) at 37° C. in 5% CO2. To induce adipocyte differentiation, the pre-adipocytes were plated at 24-well plates. After confluence, the medium was changed and 10 μg/ml insulin, 1 μM DEX and 0.5 mM IBMX was added. Two days later the media were changed to the basal medium supplemented with 10% FBS and 10 μg/ml insulin. The media were replaced every 2 days for a period of 8-14 days. To evaluate cell proliferation, ^3H-thymidine incorporation assay was used. The 3T3-L1 cells (5,000 cells/well) were incubated with 5 or 10 nM CF102 96-well plate for 48 hours. Each well was pulsed with […] ^3H-thymidine for the last 24 hours. Cells were harvested and the ^3H-thymidine uptake was determined in an LKB liquid scintillation counter (LKB, Piscataway, NJ, USA).

[4] = Body weight in STZ-induced diabetic rat model; format: in vivo, Sprague Dawley rats; conditions: STZ diabetic rats, 100 μg/kg orally twice daily for five days
Description: Diabetes is one of the complications of obesity. Therefore, the effect of an A3AR ligand on body weight in a diabetic model was also evaluated.
Sprague Dawley male rats (8-10 week old) were administered IP with Streptozotocin (STZ) at a dose level of 60 mg/kg in citrate buffer to create a diabetic model. Only animals with blood glucose level higher than 250 mg/dL were included in the study. CF602, an allosteric A3AR ligand was administered orally twice daily for five days at a dose of 100 μg/kg. Body weight was monitored after 5 days.

Compound | weight loss, mice under HFD [1] | lipid accumulation (OD value at 595 nm) vs. vehicle treated control [2] | reduction of adipocyte proliferation compared to the control measurement ([3]; 5 nM CF102, 48 hours) | reduction of adipocyte proliferation compared to the control measurement ([3]; 10 nM CF102, 48 hours) [%] | weight change from baseline (body weight) [4]
CNC(=O)[C@H]1O[C@@H](n2cnc3c(NCc4cccc(I)c4)nc(Cl)nc32)[C@H](O)[C@@H]1O [CF102, 2-chloro-N^6-(3-iodobenzyl)-adenosine-5′-N-methyluronamide] | significant (p<0.001) weight loss effect | inhibition in lipid accumulation | more than 20% | > 40 | –
Clc1ccc(Nc2nc3ccccc3c3[nH]c(C4CCCCC4)nc23)cc1Cl [CF602, N-(3,4-Dichloro-phenyl)-2-cyclohexyl-1H-imidazo[4,5-c]quinolin-4-amine] | – | – | – | – | significant (p<0.03) decrease in body weight

Source: patent US12213990B2, “A3 adenosine receptor ligand for use for achieving a fat loss effect” (CAN-FITE BIOPHARMA LTD., priority 2019, dated 2025)
